Measurements: patent US20150071856A1, “ANTAGONISTIC PEPTIDES FOR FRIZZLED-1 AND FRIZZLED-2” (Universiteit Maastricht, priority 2013, published 2015)
“Also recorded” adds a separate entry of the source. Residues, ends and D or L forms follow the SMILES beside them.

Columns and labels:
canonical Wnt signaling = experiment: Activity assay (Example 1): TOPflash luciferase reporter in HEK (HEK293-superTOPflash) cells, receptor not specified; type: cell-based, human
Protocol: (§1) Human embryonic kidney (HEK) cells were used for screening. These cells have a luciferase construct stably transfected into the genome (see FIG. 2A), such that when the frizzled receptor is activated and β-catenin is increased, the luciferase is activated by transcription and light can be measured.
(§2) The peptides were tested by transfecting the frizzled-1 or the frizzled-2 receptor and addition of UM206(S-S) to the cell culture. For testing antagonistic activity, UM206 was added and the natural ligand Wnt3a was added, which is a natural stimulus for the canonical pathway.
Transfection and Luciferase Measurement:
(§3) Plate cells in 12-well plates
(§4) Day 2: Transfection 12-Well Plates • heat Fugene6 and DNA 15 minutes at RT • 2 ml serum-free medium in tube • add 3 μl fugene • add 2 μg DNA • incubate 30 minutes at RT • wash with PBS • add 50 μl transfectiemix • add 1 ml antibiotica-free medium
(§5) Day 3: Add Conditioned Medium or UM206
(§6) Day 4: Luciferase Activity Measurements • remove medium • wash with PBS • add 500 μl ⅕ lysisbuffer • shake for 60 minutes • centrifuge in tube • 20 μl lysaat and 50 μl luciferase in new tube for measurement • vortex • measure
(§7) Three areas of high homology that contained two cysteines are underlined (UM207), (UM208) and (UM206). In FIGS. 9B through 9D, the inhibitory effect of these three peptides on Wnt3a-induced luciferase activity in HEK293-superTOPflash is shown. […] Again, the peptides by themselves had no effect on the luciferase activity.
(§8) The cell lines were cultured in 75 cm^2 culture flasks (Corning, Schiphol, the Netherlands) in Dulbeco's modified essential medium with L-glutamine (2 mM), 10% fetal calf serum (Invitrogen, Merelbeke, Belgium), and 1% gentamycin (Sigma-Aldrich, Zwijndrecht, The Netherlands). Before starting the experiment, the cell lines were treated with plasmocin 25 μg/ml (Invivogen, Toulose, France) and tested with a mycoalert mycoplasma detection kit (Lonza, Rockland Me., USA). Cells were transiently transfected with Fugene6 (Roche, Indianapolis Ind., USA) with plasmid DNA, pcDNA3.1/hygro (Invitrogen) with frizzled-1/2/4 or Wnts 3a-5a or with pcDNA3.0 (Invitrogen) containing the β-catenin or frizzled-5 sequence. After transfection, the cells were cultured for 24 hours in conditioned medium, collected from the cultured L-cells, L-cells with Wnt3a or 5a (Invitrogen). At the same moment the antagonist was added.
(§9) For the luciferase experiments not in HEK cells, the cells were additionally transfected with a TOPflash construct, eight TCF/LEF binding sites cloned into the pTA-Luc vector. Luciferase activity was measured using luciferase assay system (Promega, Madison Wis., USA).

frizzled-1 (rFzd-1) = biological target: T1, frizzled-1 (rFzd-1) (Rattus norvegicus, UniProt Q08463); experiment: Activity assay: luciferase reporter in HEK superTOPflash cells transfected with frizzled-1; type: cell-based
T1 construct: expressed in transfected cells; host or cells: HEK293 superTOPflash (transient, Fugene6, pcDNA3.1/hygro)
Protocol: as §1, §2, §4, §5, §6, §7
(§10) To determine the inhibitory constant of UM206-8, HEK293-superTOPflash cells were transfected with either rFzd-1 or -2 and incubated with Wnt3a (10^−9M) in the presence of increasing concentrations of either of the peptides (FIG. 15). For UM206, a biphasic inhibition curve was observed that was best fitted with a two-binding-state model.
as §8

frizzled-2 (rFzd-2) = biological target: T2, frizzled-2 (rFzd-2) (Rattus norvegicus, UniProt Q08464); experiment: Activity assay: luciferase reporter in HEK superTOPflash cells transfected with frizzled-2; type: cell-based
T2 construct: expressed in transfected cells; host or cells: HEK293 superTOPflash (transient, Fugene6, pcDNA3.1/hygro)
Protocol: as §1, §2, §4, §5, §6, §7, §10, §8

[1] = tested on: mouse and human Fzd-1 and -2; experiment: Antagonism of activation of mouse and human Fzd-1 and -2 by Wnt3a (data not shown); type: cell-based
Description: In FIG. 3, Panel E, the efficacy of UM206 to block the Wnt3a-induced activation of luciferase activity in HEK293 superTOPflash cells transfected with different Fzds is shown.

rFzd-1 or -2 = experiment: TOPflash experiments in CHO and COS-7 cells overexpressing rFzd-1 or -2; type: cell-based, rat
Description: as §7, §9

[2] = tested on: C-FIT cells (cardiac fibroblasts immortalized with telomerase); experiment: Migration assay (wound/scratch assay) with C-FIT cells overexpressing Fzd-1 or -2; type: cell-based, rat
Protocol: For this assay, we used rat cardiac fibroblasts, which were immortalized with telomerase, the C-FIT cell line. This cell line was characterized previously and resembles features of primary cardiac fibroblasts. C-FIT cells were plated, treated when they were 70% confluent and a wound was made with a pipette tip at the moment of 100% confluence.
This assay was first tested with the natural ligand Wnt3a, in combination with frizzled-1 and -2 overexpression. […] Next step was to see whether the antagonist could counteract this. (See FIG. 4.)
as §3
Transfection (see protocol)
Addition of conditioned medium
Make a scratch. This is time point zero.
Making pictures every six hours and analyzing the scratch width.
The overexpression of Fzd-1 and -2 in migrating (myo)fibroblasts during infarct healing was one of the first reports of activation of Wnt/Fzd signaling in cardiovascular remodeling (Blankesteijn 1997). To assess the functional relevance of Wnt/Fzd signaling on cardiac fibroblast proliferation, migration and differentiation, a cardiac fibroblast cell line immortalized with telomerase was used, as previously described (Janhunen 2009, Laeremans 2009).
Cells were plated on day 0, and cultured until 70% confluence before transfection or treatment. […] Scratch width was measured at this time point, and also after 6, 12, and 24 hours.

myocardial infarction = experiment: Echocardiography of mice after myocardial infarction; type: in vivo; conditions: UM206-treated group post-MI
Protocol: All animals were subjected to extensive echocardiography studies for the assessment of myocardial infarct size, LV cavity dimensions and ventricular function. Echocardiography examination was performed under 2% isofluorane. Echocardiograms were recorded with Philips Sonos 5500 ultrasound system (Philips, Eindhoven, the Netherlands) using a 20-MHz linear probe.

[3] = Wnt3a-induced luciferase activity, antagonists at 1.10^−9 M

T1 sequence (Q08463 69-641): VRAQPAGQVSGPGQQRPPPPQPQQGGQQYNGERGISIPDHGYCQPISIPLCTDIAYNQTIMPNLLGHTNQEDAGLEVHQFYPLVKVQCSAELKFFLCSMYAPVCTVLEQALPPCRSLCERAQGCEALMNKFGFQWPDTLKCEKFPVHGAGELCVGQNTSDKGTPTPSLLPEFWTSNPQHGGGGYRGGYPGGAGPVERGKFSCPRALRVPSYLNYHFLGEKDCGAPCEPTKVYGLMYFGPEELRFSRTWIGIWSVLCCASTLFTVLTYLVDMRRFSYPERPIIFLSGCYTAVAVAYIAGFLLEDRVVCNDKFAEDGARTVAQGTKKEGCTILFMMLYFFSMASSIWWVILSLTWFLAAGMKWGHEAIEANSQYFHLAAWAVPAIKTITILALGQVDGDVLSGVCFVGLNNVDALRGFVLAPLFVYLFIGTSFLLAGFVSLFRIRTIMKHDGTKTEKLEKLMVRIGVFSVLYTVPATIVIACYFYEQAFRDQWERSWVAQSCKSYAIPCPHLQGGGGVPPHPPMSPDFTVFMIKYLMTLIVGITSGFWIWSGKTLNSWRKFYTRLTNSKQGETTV
T2 sequence (Q08464 29-570): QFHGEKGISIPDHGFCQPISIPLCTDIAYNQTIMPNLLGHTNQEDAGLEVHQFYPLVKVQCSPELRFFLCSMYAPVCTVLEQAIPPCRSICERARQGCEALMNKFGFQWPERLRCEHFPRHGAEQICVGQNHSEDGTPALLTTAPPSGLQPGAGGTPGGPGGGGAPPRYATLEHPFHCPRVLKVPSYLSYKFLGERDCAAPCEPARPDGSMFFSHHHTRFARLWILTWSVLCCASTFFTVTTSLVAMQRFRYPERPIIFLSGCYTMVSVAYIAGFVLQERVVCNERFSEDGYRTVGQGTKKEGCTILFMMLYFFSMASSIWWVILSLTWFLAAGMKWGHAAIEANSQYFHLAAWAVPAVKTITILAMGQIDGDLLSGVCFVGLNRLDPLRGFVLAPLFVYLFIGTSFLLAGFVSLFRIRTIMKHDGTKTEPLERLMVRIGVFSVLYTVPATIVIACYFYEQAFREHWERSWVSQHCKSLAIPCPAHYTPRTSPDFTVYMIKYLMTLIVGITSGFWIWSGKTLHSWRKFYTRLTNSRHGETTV

CSCC[C@H](NC(=O)CNC(=O)[C@H](CCC(=O)O)NC(=O)[C@H](CO)NC(=O)[C@@H](NC(=O)[C@H](CCCCN)NC(=O)[C@H](CC(N)=O)NC(=O)[C@H](CS)NC(C)=O)[C@@H](C)O)C(=O)N[C@@H](CC(=O)O)C(=O)NCC(=O)N[C@@H](CS)C(=O)N[C@@H](CCC(=O)O)C(=O)N[C@@H](CC(C)C)C(N)=O [UM206, Ac-Cys-Asn-Lys-Thr-Ser-Glu-Gly-Met-Asp-Gly-Cys-Glu-Leu-NH2] (Ac-CNKTSEGMDGCEL-NH2)
IC50 (canonical Wnt signaling): in the nanomolar range
activity on the frizzled receptor: antagonist or agonist (canonical Wnt signaling; model of Example 1): very potent antagonist; also recorded: very potent inhibitor of the canonical Wnt signaling
effect of the peptide by itself on luciferase activity (canonical Wnt signaling; without Wnt3a): none of the three peptides by itself could induce an increase in luciferase activity; also recorded: no effect
% of inhibition for Fzd-1 (frizzled-1 (rFzd-1); [3]): 72.15%
block of Wnt3a-induced luciferase activity, rFzd-1 (frizzled-1 (rFzd-1); peptide 1.10^−8 M): blocked almost completely; also recorded: abolished the induction of luciferase activity almost completely
selectivity frizzled-2 over frizzled-1 (frizzled-2 (rFzd-2)): slightly more selective for frizzled-2 over frizzled-1
% of inhibition for Fzd-2 (frizzled-2 (rFzd-2); [3]): 75.06%
block of Wnt3a-induced luciferase activity, rFzd-2 (frizzled-2 (rFzd-2); peptide 1.10^−8 M): blocked almost completely; also recorded: abolished the induction of luciferase activity almost completely
antagonizing the activation of mouse and human Fzd-1 and -2 by Wnt3a [1]: fully effective
inhibition of Wnt3a-induced TOPflash activation in CHO and COS-7 cells (rFzd-1 or -2): can selectively block canonical Wnt/Fzd-1/2 signaling
effect of UM206 alone on cell migration [2]: no effect on cell migration
counteraction of Wnt3a/Wnt5a-induced attenuation of migration ([2]; UM206 1.10^−8 M, Fzd-1 or -2 overexpression): migration was reset to the migration speed of the control; also recorded: blocked completely; also recorded: block this effect completely
change of ejection fraction versus saline (myocardial infarction): doubling of the ejection fraction
reduction in end diastolic volume of the left ventricle versus saline (myocardial infarction): 40%
